Non-standard residues stand in square brackets, D forms with d. No end group written: not given here. sY = N[C@@H](Cc1ccc(OS(=O)(=O)O)cc1)C(=O)O
Assays:
KG-1 cells = assay: AML KG-1 model in SCID/NOD mice; assay type: in vivo
Protocol: The in vivo mouse model for human AML uses SCID/NOD mice (Jackson Laboratories) inoculated with KG-1 cells derived from a human AML cell line.
In a first experiment, NOD/SCID mice were pretreated with 100 mg/kg CYTOXAN®. Four days post CYTOXANT injection, KG-1 cells were injected intravenously into the tail vein of six groups of mice. (Table N, Groups 2 and 5-9). One group of mice (Table N, Group 1) was injected with PBS alone (control).
Beginning 19 days post KG-1 injection mice were treated with: CONY1, Doxorubicin, CONY1-Doxorubicin conjugate, or Mylotarg®. (Mylotarg® is a monoclonal antibody (anti CD33) conjugated chemically to calcheamicin recently approved by the FDA for treatment of AML patients age 60 and over in a first relapse.) Mice were treated once or three times per week for three weeks. One group (group 2) of KG-1 inoculated mice Were left untreated. (Table N). Two other groups of mice (groups 3 and 4) were injected with KG-1 cells that were previously incubated with CONY1 or 181-scFv (a negative, non-specific control antibody) in serum free RPMI containing 1% BSA at 4° C. for 1 h. The antibodies were used at a concentration of 0.25 mg scFv/10^8 cells (75 μg/mouse). Before injection into the mice the preincubated KG-1 cells were washed are resuspended in RPMI. The KG-1 cells in RPMI were inoculated into mice at a concentration of 75 μg scFv/0.2 ml RPMI per mouse. Group 3 mice were inoculated with KG-1+CONY1, and group 4 mice were inoculated with KG-1+181-scFv. (Table N). […]
Mice were sacrificed from 60 to 65 days post cell injection. Bone marrow and blood samples were analyzed by flow cytometry using mouse anti human CD34-FITC (IQP 144F) (or anti CD44-FITC (MCA89F, Serotec)) and Y1-Biotin/SAV-PE. […]
An additional experiment was performed in which SCID-NOD mice were i.v. injected with 3×10^4 MOLT-4 cells/mouse 5 days post treatment with cyclophosphamide. […] Bone marrow was extracted and analyzed by FACS analysis using a commercially available antiCD44 antibody for the detection of MOLT-4 cells in the mice bone marrow cell population.

[1] = system: Y1 binding to purified glycocalicin; assay: ELISA: effect of synthetic GPIbα peptides on Y1 binding to purified glycocalicin; set-up: species or system human; conditions: 0.25 μg/well Y1
Protocol: ELISA assays were developed to evaluate the effect of the GPIb derived synthetic peptides on the binding of Y1 to purified glycocalicin. In addition, FACS analysis using washed platelets was carried out. To evaluate the importance of sulfated tyrosine within the Y1 binding site of GPIb, a competitive binding FACS analysis was used. Y1-scFv at a concentration of 1 μg was preincubated with different peptides at concentrations of 2.5 and 200 μM. After a preincubation for 30 minutes at room temperature the mixture was added to a tube containing ˜10^7 washed platelets and the binding of Y1 to the washed platelets was assessed using polyclonal rabbit anti-scFv-PE. The inhibitory effect of the peptides compared to control binding (Y1 alone) was evaluated by measuring the residual binding of Y1 to washed platelets. The peptides and the results are described in Table 1 and are similar to results that were observed using the same peptides in an ELISA assay (Table B). In both assays, a control level of Y1 binding was determined, as follows. A polystyrene microtiter maxisorb plate was coated with (a) purified glycocalicin or (b) washed platelets. […] The plate was then incubated with rabbit anti-scFv followed by addition of anti rabbit —HRP (horse radish peroxidase) and HRP substrate. The level of anti rabbit —HRP binding was measured by the intensity of the color produced, and the level of anti rabbit —HRP binding correlates with the level of binding of anti Y1-scFv and the level of binding of Y1. The optical density was measured at A405. Each sample was assayed in duplicate, and the average was calculated.
The effect of synthetic GPIbα peptides on Y1 binding to purified glycocalicin was evaluated by mixing varying concentrations of the peptides with a constant amount of Y1. After a preincubation for 30 minutes at room temperature, the mixture was added to a polystyrene microtiter maxisorb plate coated with purified glycocalicin, as described for evaluation of Y1 binding in the absence of peptides. The inhibitory effect of the peptides was evaluated by measuring the residual binding of Y1 to glycocalicin using rabbit anti Y1scFv and anti rabbit —HRP antibodies, as described for evaluation of Y1 binding in the absence of peptides. This study was performed with four peptides representing various subsets of the sequence 268 to 285 and a control peptide. Each peptide was tested at different concentrations: 200 μM, 25 μM, 2.5 μM, and 0.5 μM.

[2] = system: Y1 binding to washed platelets; assay: Comparative FACS: effect of synthetic GPIbα peptides on Y1 binding to washed platelets; set-up: species or system human
Protocol: ELISA assays were developed to evaluate the effect of the GPIb derived synthetic peptides on the binding of Y1 to purified glycocalicin. In addition, FACS analysis using washed platelets was carried out. To evaluate the importance of sulfated tyrosine within the Y1 binding site of GPIb, a competitive binding FACS analysis was used. Y1-scFv at a concentration of 1 μg was preincubated with different peptides at concentrations of 2.5 and 200 μM. After a preincubation for 30 minutes at room temperature the mixture was added to a tube containing ˜10^7 washed platelets and the binding of Y1 to the washed platelets was assessed using polyclonal rabbit anti-scFv-PE. The inhibitory effect of the peptides compared to control binding (Y1 alone) was evaluated by measuring the residual binding of Y1 to washed platelets. The peptides and the results are described in Table 1 and are similar to results that were observed using the same peptides in an ELISA assay (Table B). In both assays, a control level of Y1 binding was determined, as follows. A polystyrene microtiter maxisorb plate was coated with (a) purified glycocalicin or (b) washed platelets. After extensive washing, 0.5 μg/well of Y1 was added. The plate was then incubated with rabbit anti-scFv followed by addition of anti rabbit —HRP (horse radish peroxidase) and HRP substrate. The level of anti rabbit —HRP binding was measured by the intensity of the color produced, and the level of anti rabbit —HRP binding correlates with the level of binding of anti Y1-scFv and the level of binding of Y1. The optical density was measured at A405. Each sample was assayed in duplicate, and the average was calculated.

[3] = system: scFv Y1 binding to glycocalicin; assay: Competitive binding ELISA of sulfated peptides (scFv Y1 binding to immobilized glycocalicin); set-up: species or system human; conditions: peptide 1, 10 and 100 μM, preincubated 10 minutes with scFv Y1
Protocol: A competitive binding ELISA assay was used to assess the importance of the presence and position of sulfated tyrosines to the binding of peptides to Y1.
Glycocalicin was immobilized on a Maxisorb plate. scFv Y1 was preincubated with a peptide of interest for 10 minutes at three different concentrations (1, 10 and 100 μM) in order to observe a dose response. (Table 12). After preincubation, the mixture (Y1+peptide) was added to the plate, and binding of scFv Y1 was assessed using polyclonal rabbit anti-VL, which recognizes the VL chain of scFv Y1, followed by anti-rabbit-HRP. In mixtures in which the peptide bound to scFv Y1, a decrease in the binding of scFv Y1 to glycocalicin compared to control binding was observed.

Question: How did the “percentage of KG-1 cells in bone marrow compared to untreated group 2 (in words)” value (KG-1 cells; 0.1 mg/kg free Doxorubicin, 3 times per week (group 6)) turn out when `COc1cccc2c1C(=O)c1c(O)c3c(c(O)c1C2=O)C[C@@](O)(C(=O)CO)C[C@@H]3O[C@H]1C[C@H](N)[C@H](O)[C@H](C)O1` [Doxorubicin] was run?
Answer: statistically significant (p<0.05) lower percentage

Question: What does the source list for “GDEGDTDLY*DY*Y*P (GDEGDTDL[sY]D[sY][sY]P) [P-3-S, residues 268-280 of GPIbα, Y* sulfated tyrosine]”?
Answer: Residual Binding of Y1 (% of baseline) ([1]; peptide 0.5 μM): 80 % of baseline; Residual Binding of Y1 (% of baseline) ([1]; peptide 2.5 μM): 67 % of baseline; Residual Binding of Y1 (% of baseline) ([1]; peptide 25 μM): 21 % of baseline; Residual Binding of Y1 (% of baseline) (Geo Mean) ([2]; peptide 2.5 μM): 82 % of baseline; Residual Binding of Y1 (% of baseline) (Geo Mean) ([2]; peptide 200 μM): 26 % of baseline

Question: How did the “Residual Binding of Y1 (% of baseline)” value ([1]; peptide 0.5 μM) turn out when “GDEGDTDLY*DY*Y*PEEDTE (GDEGDTDL[sY]D[sY][sY]PEEDTE) [P-1-S, residues 268-285 of GPIbα, Y* sulfated tyrosine]” was run?
Answer: 89 % of baseline

Question: And the “Residual Binding of Y1 (% of baseline)” value ([1]; peptide 2.5 μM)?
Answer: 62 % of baseline

Question: And the “Residual Binding of Y1 (% of baseline)” value ([1]; peptide 25 μM)?
Answer: 25 % of baseline

Question: What about the “Residual Binding of Y1 (% of baseline)” value ([1]; peptide 200 μM) of the same compound?
Answer: 0 % of baseline

Question: What about the “Residual Binding of Y1 (% of baseline) (Geo Mean)” value ([2]; peptide 2.5 μM) of the same compound?
Answer: 41 % of baseline

Question: And the “Residual Binding of Y1 (% of baseline) (Geo Mean)” value ([2]; peptide 200 μM)?
Answer: 5 % of baseline

Question: What about the “inhibition of Y1 binding to glycocalicin (in words)” value [3] of the same compound?
Answer: did inhibit

Question: Which “Residual Binding of Y1 (% of baseline)” value ([1]; peptide 0.5 μM) does the source give for “GDEGDTDLYDYYPEEDTE [P-1, residues 268-285 of GPIbα, non-sulfated]” here?
Answer: 88 % of baseline

Question: And the “Residual Binding of Y1 (% of baseline)” value ([1]; peptide 2.5 μM)?
Answer: 94 % of baseline

Question: And the “Residual Binding of Y1 (% of baseline)” value ([1]; peptide 25 μM)?
Answer: 71 % of baseline

Question: And the “Residual Binding of Y1 (% of baseline)” value ([1]; peptide 200 μM)?
Answer: 61 % of baseline

Question: And the “Residual Binding of Y1 (% of baseline) (Geo Mean)” value ([2]; peptide 2.5 μM)?
Answer: 106 % of baseline

Question: What about the “Residual Binding of Y1 (% of baseline) (Geo Mean)” value ([2]; peptide 200 μM) of the same compound?
Answer: 87 % of baseline

Question: “Mylotarg: monoclonal antibody (anti CD33) conjugated chemically to calcheamicin, FDA approved for AML” was tested. Which “KG-1 cells in bone marrow (in words)” value (KG-1 cells; 0.2 mg/kg, 1 time per week (group 9)) did it give?
Answer: free of KG 1 cells

Question: What about the “development of the malignancy / prevalence of bone marrow cancer (in words)” value (KG-1 cells; additional experiment, day 60, CONY1 scFv 75 μg/mouse three times/week, Mylotarg 7 μg/mouse once a week) of the same compound?
Answer: completely inhibited

Question: Which results are given for “REEGRQHFFLLEGRSSYS [negative control peptide, reference compound]”?
Answer: Residual Binding of Y1 (% of baseline) ([1]; peptide 0.5 μM): 121 % of baseline; Residual Binding of Y1 (% of baseline) ([1]; peptide 2.5 μM): 100 % of baseline; Residual Binding of Y1 (% of baseline) ([1]; peptide 25 μM): 89 % of baseline; Residual Binding of Y1 (% of baseline) ([1]; peptide 200 μM): 85 % of baseline; Residual Binding of Y1 (% of baseline) (Geo Mean) ([2]; peptide 2.5 μM): 96 % of baseline; Residual Binding of Y1 (% of baseline) (Geo Mean) ([2]; peptide 200 μM): 119 % of baseline

Question: For “TDLY*DY*Y*PEEDTE (TDL[sY]D[sY][sY]PEEDTE) [P-2-S, residues 273-285 of GPIbα, Y* sulfated tyrosine]”, which “Residual Binding of Y1 (% of baseline)” value ([1]; peptide 0.5 μM) is on record?
Answer: 78 % of baseline

Question: What about the “Residual Binding of Y1 (% of baseline)” value ([1]; peptide 2.5 μM) of the same compound?
Answer: 52 % of baseline

Question: And the “Residual Binding of Y1 (% of baseline)” value ([1]; peptide 25 μM)?
Answer: 15 % of baseline

Question: What about the “Residual Binding of Y1 (% of baseline) (Geo Mean)” value ([2]; peptide 2.5 μM) of the same compound?
Answer: 61 % of baseline

Question: And the “Residual Binding of Y1 (% of baseline) (Geo Mean)” value ([2]; peptide 200 μM)?
Answer: 7 % of baseline
